Test results reported in patent publication US20260207585A1, “METHODS AND COMPOSITIONS FOR THE TREATMENT OF PARKINSON'S DISEASE, HUNTINGTON'S DISEASE, AMYOTROPHIC LATERAL SCLEROSIS, AND LEARNING DISORDERS” (Cedars-Sinai Medical Center, priority 2022, published 2026).
Where two headings read alike, the source gives them in different places.

Key:
DNMT3b = DNMT3b (Homo sapiens, UniProt Q9UBC3); test: Methyltransferase inhibition panel: DNMT3b; format: biochemical
Experimental: (§1) The ability of ETP69 to inhibit methyltransferases was tested.

EZH1 Complex = EZH1 Complex (Homo sapiens, UniProt Q92800); test: Methyltransferase inhibition panel: EZH1 Complex; format: biochemical; conditions: NT1721 20 μM; substrate Core Histone 0.05 mg/mL
Experimental: as §1

[1] = test system: wildtype and AD model (APP/PS1-transgenic) mice; test: Visual stimuli X-maze (ViS4M) test, colour and contrast modes; format: in vivo
Experimental: The effects of single and repeated ETP69 injections in mice were tested. The experimental timeline is depicted in FIG. 5. Three parallel injection conditions were tested: a single ETP69 condition, a boosted ETP69 injection, and repeated ETP69 injections. The single injection mice received one injection of ETP69 or DMSO at Day 0. The mice that received a boosted injection received one injection of ETP69 or DMSO at day 0 and one injection at day 9. The mice that received repeated injections received 11 injections of ETP69 or DMSO at day 0 or day 9. Both wildtype and AD model (APP/PS1-transgenic) mice were tested.
FIG. 6C-6F depicts the results of the mice on the color mode of the visual stimuli X-maze test. […] FIG. 6G-611 depict the results of the contrast mode of the visual stimuli X-maze test.
Old (18-month-old) mice were administered ETP69. Both a neurodegenerative model (AD+) and wild type siblings were tested. Mice were treated with i.p. injection of ETP69 [E; 10 mg/kg dissolved in dimethyl sulfoxide (DMSO)].

MLL4 Complex = MLL4 Complex (Homo sapiens, UniProt Q9UMN6); test: Methyltransferase inhibition panel: MLL4 Complex; format: biochemical
Experimental: as §1

6E10 = 6E10 staining of brain sections; format: in vivo; conditions: AD+ mice; 4 and 15 days
Excerpt: ETP69 administration reduced AD-related brain pathology (FIGS. 9A-9C). Brain sections were stained for H3K9me3, 6E10 and GFAP.

DNMT3a = DNMT3a (Homo sapiens, UniProt Q9Y6K1); test: Methyltransferase inhibition panel: DNMT3a; format: biochemical; conditions: NT1721 20 μM; substrate Lambda DNA 0.0075 mg/mL
Experimental: as §1

PRMT1 = PRMT1 (Homo sapiens, UniProt Q99873); test: Methyltransferase inhibition panel: PRMT1; format: biochemical
Experimental: as §1

[2] = test system: soluble fraction of brain homogenates; test: Mass spectrometry proteomics of brain homogenates with IPA; format: in vivo, mice
Experimental: The results included levodopa (L-dopa), a naturally occurring product that is also a drug for the management of Parkinson's motor symptoms.
Mass spectrometry (MS) analysis on the soluble fraction of brain homogenates extracted from the […] WT and neurodegenerative (AD) mice cohort was performed (DMSO-treated WT mice: n=8; ETP69-treated WT mice: n=7; DMSO-treated AD^+ mice: n=6; ETP69-treated AD^+ n=6).
The effects of ETP69 on the molecular pathways related to neuroprotection and cognitive function was assessed.

PRMT5/MEP50 Complex = PRMT5/MEP50 Complex (Homo sapiens, UniProt O14744); test: Methyltransferase inhibition panel: PRMT5/MEP50 Complex; format: biochemical
Experimental: as §1

NSD2 (T1150A) = target: T1, NSD2 (T1150A) (Homo sapiens, UniProt O96028, T1150A); test: Methyltransferase inhibition panel: NSD2 (T1150A); format: biochemical
T1 sequence (O96028 1-1365 T1150A): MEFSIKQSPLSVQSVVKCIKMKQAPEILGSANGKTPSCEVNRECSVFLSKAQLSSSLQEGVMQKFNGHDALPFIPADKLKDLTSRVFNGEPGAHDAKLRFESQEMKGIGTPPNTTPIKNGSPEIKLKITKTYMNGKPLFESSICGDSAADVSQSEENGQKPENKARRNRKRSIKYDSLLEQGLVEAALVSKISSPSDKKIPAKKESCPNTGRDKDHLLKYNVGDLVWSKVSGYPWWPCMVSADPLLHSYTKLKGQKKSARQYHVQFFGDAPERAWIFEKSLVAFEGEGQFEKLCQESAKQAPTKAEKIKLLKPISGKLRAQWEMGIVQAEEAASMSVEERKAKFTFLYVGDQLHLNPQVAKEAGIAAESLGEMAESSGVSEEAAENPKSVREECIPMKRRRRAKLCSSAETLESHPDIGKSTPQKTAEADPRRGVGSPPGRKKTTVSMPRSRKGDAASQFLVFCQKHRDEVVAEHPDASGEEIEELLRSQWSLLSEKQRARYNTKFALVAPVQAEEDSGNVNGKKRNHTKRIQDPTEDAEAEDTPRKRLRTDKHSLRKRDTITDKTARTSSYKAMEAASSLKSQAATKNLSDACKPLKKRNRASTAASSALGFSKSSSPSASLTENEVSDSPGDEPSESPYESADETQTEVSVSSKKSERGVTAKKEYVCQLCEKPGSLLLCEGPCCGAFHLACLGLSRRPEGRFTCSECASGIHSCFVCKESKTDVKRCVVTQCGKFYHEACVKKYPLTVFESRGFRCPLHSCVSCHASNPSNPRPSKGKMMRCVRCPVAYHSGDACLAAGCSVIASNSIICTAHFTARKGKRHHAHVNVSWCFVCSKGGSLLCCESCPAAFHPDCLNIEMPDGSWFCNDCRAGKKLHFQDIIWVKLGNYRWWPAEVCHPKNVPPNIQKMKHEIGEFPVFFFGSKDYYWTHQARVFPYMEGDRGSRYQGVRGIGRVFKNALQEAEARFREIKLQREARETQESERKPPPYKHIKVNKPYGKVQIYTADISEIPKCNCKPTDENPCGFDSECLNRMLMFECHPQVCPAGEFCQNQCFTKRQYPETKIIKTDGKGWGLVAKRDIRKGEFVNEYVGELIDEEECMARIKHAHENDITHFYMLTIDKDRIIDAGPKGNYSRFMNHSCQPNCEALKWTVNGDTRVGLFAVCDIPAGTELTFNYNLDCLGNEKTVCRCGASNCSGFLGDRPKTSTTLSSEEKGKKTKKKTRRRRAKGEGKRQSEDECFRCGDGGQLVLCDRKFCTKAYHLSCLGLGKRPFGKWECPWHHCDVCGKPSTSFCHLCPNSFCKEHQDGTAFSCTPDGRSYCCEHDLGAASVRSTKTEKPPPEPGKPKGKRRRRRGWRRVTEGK
Experimental: as §1

[3] = read-out: Enzyme % Activity (relative to DMSO controls) Data 1
[4] = read-out: Enzyme % Activity (relative to DMSO controls) Data 2

Chain of MLL4 Complex (Q9UMN6 2490-2715): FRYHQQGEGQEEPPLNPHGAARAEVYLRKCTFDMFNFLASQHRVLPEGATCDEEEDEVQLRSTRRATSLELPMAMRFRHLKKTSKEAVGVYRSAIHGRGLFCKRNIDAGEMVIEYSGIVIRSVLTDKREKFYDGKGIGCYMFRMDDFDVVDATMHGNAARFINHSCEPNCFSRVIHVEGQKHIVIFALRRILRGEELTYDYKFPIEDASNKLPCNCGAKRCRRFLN
Chain of MLL4 Complex (Q9C005 whole entry, further chain): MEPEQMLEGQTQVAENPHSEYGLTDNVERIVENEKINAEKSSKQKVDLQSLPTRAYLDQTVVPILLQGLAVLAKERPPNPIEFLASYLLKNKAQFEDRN
Chain of MLL4 Complex (Q9UBL3 whole entry, further chain): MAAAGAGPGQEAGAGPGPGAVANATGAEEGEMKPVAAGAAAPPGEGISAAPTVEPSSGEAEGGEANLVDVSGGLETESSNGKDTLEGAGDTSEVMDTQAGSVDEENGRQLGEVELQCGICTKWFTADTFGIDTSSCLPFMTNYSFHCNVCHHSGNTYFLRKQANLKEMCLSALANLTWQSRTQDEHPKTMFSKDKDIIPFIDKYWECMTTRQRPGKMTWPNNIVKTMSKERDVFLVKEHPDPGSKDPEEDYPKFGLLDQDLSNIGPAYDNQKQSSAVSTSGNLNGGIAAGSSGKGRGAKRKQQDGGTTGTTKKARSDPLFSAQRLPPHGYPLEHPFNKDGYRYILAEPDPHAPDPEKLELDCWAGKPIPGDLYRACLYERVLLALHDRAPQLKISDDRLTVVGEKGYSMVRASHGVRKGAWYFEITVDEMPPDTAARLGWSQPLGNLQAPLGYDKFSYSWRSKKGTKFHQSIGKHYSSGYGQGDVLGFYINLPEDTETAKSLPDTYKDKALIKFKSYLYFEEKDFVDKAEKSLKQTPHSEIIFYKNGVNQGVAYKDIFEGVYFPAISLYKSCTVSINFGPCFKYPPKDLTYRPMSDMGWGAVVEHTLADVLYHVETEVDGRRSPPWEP
Chain of MLL4 Complex (Q15291 whole entry, further chain): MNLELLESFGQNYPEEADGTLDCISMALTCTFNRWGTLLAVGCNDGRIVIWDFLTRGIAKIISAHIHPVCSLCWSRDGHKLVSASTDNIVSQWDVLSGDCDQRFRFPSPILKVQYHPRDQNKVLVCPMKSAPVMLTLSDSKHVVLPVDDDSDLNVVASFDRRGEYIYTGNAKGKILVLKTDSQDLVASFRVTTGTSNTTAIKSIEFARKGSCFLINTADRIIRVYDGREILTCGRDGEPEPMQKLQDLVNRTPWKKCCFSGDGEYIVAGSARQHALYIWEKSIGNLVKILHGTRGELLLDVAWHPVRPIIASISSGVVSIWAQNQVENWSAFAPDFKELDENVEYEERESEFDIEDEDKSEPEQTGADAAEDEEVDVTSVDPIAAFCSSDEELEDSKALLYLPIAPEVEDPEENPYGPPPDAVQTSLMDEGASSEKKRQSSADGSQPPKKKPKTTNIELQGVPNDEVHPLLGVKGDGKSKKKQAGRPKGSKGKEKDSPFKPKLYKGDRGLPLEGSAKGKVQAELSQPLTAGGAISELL
Chain of PRMT5/MEP50 Complex (O14744 whole entry): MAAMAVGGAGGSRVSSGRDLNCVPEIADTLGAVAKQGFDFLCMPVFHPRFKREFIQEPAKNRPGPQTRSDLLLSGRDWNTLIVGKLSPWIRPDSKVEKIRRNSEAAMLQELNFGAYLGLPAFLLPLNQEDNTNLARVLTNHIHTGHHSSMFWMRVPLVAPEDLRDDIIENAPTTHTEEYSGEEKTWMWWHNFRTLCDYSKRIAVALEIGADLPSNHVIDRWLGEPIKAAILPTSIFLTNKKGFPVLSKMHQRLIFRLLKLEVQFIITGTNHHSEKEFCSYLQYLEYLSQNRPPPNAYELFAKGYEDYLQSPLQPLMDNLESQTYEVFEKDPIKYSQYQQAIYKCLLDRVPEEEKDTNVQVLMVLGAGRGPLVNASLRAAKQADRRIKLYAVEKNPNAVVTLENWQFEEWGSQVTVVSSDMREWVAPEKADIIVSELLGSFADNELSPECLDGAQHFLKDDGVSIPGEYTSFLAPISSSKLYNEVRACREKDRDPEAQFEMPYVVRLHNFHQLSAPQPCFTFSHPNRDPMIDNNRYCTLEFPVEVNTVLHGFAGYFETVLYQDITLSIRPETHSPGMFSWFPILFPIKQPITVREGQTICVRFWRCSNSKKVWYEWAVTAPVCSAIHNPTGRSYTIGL
Chain of PRMT5/MEP50 Complex (Q9BQA1 whole entry partner): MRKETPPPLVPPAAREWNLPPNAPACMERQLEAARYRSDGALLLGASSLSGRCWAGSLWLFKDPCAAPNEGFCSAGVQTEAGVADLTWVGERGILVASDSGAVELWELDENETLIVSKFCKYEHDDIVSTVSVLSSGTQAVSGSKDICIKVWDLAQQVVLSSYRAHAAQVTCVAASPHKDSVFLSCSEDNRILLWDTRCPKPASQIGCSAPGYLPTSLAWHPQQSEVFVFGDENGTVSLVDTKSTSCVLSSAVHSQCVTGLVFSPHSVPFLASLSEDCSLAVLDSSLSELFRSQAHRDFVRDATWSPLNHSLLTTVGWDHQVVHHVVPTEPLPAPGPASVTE
Chain of DNMT3a (Q9Y6K1 whole entry, looked up): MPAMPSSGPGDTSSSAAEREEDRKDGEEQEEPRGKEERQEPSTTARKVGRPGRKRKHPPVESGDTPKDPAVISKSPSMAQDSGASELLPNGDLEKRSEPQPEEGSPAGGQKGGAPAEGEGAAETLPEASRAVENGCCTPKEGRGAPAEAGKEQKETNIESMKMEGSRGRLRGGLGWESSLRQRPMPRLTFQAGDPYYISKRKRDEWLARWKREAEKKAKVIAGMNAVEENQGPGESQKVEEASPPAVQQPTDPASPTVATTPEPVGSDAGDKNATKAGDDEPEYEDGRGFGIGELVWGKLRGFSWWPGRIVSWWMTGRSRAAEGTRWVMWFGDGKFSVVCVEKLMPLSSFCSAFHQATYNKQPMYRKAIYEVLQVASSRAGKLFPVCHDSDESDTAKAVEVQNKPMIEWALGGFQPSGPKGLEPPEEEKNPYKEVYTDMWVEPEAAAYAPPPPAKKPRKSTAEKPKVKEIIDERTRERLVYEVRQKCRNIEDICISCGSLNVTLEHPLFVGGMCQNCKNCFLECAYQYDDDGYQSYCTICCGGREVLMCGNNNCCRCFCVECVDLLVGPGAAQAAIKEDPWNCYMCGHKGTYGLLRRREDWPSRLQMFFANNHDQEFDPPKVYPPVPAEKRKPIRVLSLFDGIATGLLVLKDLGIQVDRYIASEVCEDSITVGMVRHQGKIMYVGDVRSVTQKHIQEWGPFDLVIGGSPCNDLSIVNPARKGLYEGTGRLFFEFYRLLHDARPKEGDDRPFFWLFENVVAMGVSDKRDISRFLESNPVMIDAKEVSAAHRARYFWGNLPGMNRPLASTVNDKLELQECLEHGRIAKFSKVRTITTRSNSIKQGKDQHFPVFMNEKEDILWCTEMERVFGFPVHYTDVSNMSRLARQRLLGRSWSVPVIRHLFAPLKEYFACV
Chain of PRMT1 (Q99873 whole entry): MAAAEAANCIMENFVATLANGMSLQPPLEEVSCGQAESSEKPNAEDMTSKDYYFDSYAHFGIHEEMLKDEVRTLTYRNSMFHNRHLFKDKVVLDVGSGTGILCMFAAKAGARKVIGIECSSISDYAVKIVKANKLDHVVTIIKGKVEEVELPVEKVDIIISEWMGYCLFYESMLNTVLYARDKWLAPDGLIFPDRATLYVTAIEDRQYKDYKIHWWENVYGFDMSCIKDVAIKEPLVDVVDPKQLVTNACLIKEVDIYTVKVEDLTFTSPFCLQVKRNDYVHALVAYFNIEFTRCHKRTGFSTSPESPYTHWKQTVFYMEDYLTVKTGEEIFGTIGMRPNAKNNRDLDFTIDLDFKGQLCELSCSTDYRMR

In the case of `CN1C(=O)[C@@]23C[C@](C)(C#N)[C@H](c4ccc5c(c4)OCO5)N2C(=O)[C@]1(C)SS3` (racemic) [ETP69, Rac-(3S,6S,7S,8aS)-6-(benzo[d][1,3]dioxol-5-yl)-2,3,7-trimethyl-1,4-dioxohexahydro-6H-3,8a-epidithiopyrrolo[1,2-a]pyrazine-7-carbonitrile], the remaining activity at 20 µM (DNMT3b; [3]) is reported as 84.8%, the remaining activity at 20 µM (DNMT3b; [4]) is reported as 80.9% and the “Enzyme % Activity (relative to DMSO controls) Data 1” value (EZH1 Complex) is reported as 103.44%. The “Enzyme % Activity (relative to DMSO controls) Data 2” value (EZH1 Complex) was 104.86%, the “percent alternation and bidirectional movement” value ([1]; color mode, AD+ mice) was “significant increase” and the percent alternation ([1]; contrast mode, AD+ mice) was “significant increase”. For the same molecule, the “colour X-maze spontaneous alternations” value ([1]; old WT mice, single dose 10 mg/kg i.p., p=0.0027) was “increased”, the remaining activity at 20 µM (MLL4 Complex; [3]) was 1.32% and the remaining activity at 20 µM (MLL4 Complex; [4]) was 1.17%. For the same molecule, the “inhibition relative to DMSO controls” value (MLL4 Complex; summary of Table 1) was “at least 7500”, the 6E10 (6E10) was “significant decrease” and the “Enzyme % Activity (relative to DMSO controls) Data 1” value (DNMT3a) was 76.81%. The “Enzyme % Activity (relative to DMSO controls) Data 2” value (DNMT3a) was 78.12%, the remaining activity at 20 µM (PRMT1; [3]) was 114% and the remaining activity at 20 µM (PRMT1; [4]) was 115%. For the same molecule, the “pathways of learning, cognition, quantity of neurons, dendritic growth and branching (IPA)” value ([2]; AD+ mice) was “significantly activated”, the Mapt protein upregulation ([2]; AD+ mice, p=0.0188) was 2.4 fold and the Gfra2 protein ([2]; ETP69-treated mice, p=0.0056) was “significantly increased”. The Lrrn4 protein upregulation ([2]; ETP69-treated versus DMSO-control AD+ mice, p=0.015) was 1.73 fold, the “brain neurotrophic factors (NTFs) expression including BDNF, VGF and levodopa” value ([2]; proteome signatures) was “induced” and the remaining activity at 20 µM (PRMT5/MEP50 Complex; [3]) was 92.2%. The remaining activity at 20 µM (PRMT5/MEP50 Complex; [4]) was 93.1%, the remaining activity at 20 µM (NSD2 (T1150A); [3]) was 23.9% and the remaining activity at 20 µM (NSD2 (T1150A); [4]) was 25.5%. For the same molecule, the “inhibition relative to DMSO controls” value (NSD2 (T1150A); summary of Table 1) was “at least 7500”.
